Tests used:
[1] = biological target: Vascular endothelial growth factor receptor 1 (Homo sapiens, UniProt P17948); assay: Induction of stabilization of recombinant FLT1 (unknown origin) assessed as change in melting temperature by differential scanning fluorimetry assay
[2] = biological target: T1, Ephrin type-B receptor 1 (Homo sapiens) (UniProt P54762); assay: Induction of stabilization of recombinant EPHB1 (unknown origin) assessed as change in melting temperature by differential scanning fluorimetry assay
T1 sequence (whole entry): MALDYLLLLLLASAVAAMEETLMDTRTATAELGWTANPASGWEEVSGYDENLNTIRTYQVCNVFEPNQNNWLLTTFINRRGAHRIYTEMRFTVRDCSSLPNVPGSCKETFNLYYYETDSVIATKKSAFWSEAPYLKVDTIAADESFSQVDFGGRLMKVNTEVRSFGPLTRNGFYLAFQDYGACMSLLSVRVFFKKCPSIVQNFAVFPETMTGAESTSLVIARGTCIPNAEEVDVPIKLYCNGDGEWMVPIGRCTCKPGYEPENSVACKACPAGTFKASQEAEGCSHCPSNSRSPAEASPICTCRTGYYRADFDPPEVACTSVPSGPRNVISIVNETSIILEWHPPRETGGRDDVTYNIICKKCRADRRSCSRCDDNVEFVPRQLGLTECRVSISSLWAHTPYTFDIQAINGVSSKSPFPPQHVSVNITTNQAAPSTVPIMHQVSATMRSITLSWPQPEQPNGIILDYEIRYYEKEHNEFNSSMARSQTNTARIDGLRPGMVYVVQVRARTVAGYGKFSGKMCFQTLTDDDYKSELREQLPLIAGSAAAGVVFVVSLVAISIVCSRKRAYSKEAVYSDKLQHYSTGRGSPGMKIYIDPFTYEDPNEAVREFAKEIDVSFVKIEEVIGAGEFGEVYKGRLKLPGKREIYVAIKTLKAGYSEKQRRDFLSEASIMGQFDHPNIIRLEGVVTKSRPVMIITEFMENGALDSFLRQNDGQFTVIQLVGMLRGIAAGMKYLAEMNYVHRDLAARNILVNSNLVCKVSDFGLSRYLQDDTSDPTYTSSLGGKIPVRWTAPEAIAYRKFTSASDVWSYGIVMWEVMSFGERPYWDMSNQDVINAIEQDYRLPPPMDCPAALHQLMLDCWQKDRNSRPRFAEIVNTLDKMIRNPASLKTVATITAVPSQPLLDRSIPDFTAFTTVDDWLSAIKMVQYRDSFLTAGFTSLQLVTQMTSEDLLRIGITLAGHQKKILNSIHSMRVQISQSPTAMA

[3] = biological target: Ephrin type-A receptor 2 (Homo sapiens, UniProt P29317)
Chain of Ephrin type-A receptor 2 (P29317 whole entry): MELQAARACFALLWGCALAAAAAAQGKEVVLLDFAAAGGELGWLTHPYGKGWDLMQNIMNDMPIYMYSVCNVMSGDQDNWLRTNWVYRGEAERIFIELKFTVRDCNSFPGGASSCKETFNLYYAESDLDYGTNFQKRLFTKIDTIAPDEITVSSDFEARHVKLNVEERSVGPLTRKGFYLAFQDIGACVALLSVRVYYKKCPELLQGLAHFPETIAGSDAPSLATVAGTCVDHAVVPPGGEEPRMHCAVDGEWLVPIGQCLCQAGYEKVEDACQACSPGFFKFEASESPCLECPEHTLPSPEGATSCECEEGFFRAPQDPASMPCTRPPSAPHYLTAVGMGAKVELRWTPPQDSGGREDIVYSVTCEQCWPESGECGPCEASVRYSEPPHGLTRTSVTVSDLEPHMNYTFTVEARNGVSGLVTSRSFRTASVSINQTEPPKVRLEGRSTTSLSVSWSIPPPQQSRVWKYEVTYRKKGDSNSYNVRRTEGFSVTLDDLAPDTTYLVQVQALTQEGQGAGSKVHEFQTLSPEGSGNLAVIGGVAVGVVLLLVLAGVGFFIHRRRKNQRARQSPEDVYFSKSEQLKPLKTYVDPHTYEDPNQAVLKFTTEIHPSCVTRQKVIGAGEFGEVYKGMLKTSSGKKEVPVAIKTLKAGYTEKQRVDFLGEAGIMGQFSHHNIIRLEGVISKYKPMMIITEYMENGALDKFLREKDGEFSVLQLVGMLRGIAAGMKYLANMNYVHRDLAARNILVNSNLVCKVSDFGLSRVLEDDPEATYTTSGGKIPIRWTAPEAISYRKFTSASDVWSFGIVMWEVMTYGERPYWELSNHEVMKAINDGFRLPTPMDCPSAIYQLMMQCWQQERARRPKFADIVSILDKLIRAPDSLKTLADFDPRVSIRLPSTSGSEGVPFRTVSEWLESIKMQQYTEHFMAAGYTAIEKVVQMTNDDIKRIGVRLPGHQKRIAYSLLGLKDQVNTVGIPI
Description: Induction of stabilization of recombinant EPHA2 (D596 to G900 residues) (unknown origin) expressed in Escherichia coli rosetta BL21(D3)-R3-pRARE2 competent cells assessed as change in melting temperature by differential scanning fluorimetry assay

[4] = biological target: Fibroblast growth factor receptor 2 (Homo sapiens) (UniProt P21802)
Chain of Fibroblast growth factor receptor 2 (Homo sapiens) (P21802 22-821 limits assumed): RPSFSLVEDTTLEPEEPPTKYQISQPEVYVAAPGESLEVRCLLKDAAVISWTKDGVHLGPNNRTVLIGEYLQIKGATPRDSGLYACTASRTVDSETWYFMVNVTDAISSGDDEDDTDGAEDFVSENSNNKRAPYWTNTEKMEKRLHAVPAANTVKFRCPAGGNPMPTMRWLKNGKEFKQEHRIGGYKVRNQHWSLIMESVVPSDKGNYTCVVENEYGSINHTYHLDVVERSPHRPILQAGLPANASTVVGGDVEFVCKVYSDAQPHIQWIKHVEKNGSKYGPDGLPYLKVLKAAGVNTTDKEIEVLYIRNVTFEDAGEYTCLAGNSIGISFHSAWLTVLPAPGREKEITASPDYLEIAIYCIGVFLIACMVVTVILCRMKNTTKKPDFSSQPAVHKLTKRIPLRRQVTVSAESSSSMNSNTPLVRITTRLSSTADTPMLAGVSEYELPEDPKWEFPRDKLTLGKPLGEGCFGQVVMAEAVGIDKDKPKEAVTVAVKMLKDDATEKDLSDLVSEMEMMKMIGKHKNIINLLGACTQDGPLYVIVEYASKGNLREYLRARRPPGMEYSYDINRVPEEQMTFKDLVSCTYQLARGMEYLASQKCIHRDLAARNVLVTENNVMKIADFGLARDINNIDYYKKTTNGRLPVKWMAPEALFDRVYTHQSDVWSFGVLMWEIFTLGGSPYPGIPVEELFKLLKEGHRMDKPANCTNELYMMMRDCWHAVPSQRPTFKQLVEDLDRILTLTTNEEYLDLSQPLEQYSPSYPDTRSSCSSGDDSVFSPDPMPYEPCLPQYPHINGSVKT
Description: Induction of stabilization of recombinant FGFR2 (unknown origin) assessed as change in melting temperature by differential scanning fluorimetry assay

[5] = biological target: Fibroblast growth factor receptor 1 (Homo sapiens, UniProt P11362)
Chain of Fibroblast growth factor receptor 1 (P11362 22-822 limits assumed): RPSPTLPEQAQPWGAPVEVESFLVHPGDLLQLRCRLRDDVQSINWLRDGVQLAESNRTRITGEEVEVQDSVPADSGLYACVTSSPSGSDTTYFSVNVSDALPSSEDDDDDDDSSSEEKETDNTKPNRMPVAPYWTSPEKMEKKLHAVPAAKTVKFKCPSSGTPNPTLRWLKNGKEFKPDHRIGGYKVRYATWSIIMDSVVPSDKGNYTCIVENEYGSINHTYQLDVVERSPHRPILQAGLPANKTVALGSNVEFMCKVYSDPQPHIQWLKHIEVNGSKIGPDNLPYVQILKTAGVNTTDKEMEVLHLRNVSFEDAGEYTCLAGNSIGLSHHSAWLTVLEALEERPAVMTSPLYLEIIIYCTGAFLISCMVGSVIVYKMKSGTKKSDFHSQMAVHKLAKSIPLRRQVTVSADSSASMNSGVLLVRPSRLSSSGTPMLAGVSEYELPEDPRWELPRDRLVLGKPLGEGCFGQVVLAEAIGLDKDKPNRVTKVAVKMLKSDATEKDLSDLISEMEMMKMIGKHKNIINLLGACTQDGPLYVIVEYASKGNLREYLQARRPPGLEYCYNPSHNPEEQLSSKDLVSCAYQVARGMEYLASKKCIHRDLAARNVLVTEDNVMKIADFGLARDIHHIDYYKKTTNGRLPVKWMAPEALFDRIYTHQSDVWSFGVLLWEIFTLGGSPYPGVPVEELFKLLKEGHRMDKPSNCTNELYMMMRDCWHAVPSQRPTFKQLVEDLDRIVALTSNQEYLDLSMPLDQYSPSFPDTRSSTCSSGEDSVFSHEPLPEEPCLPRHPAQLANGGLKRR
Description: Induction of stabilization of recombinant FGFR1 (unknown origin) assessed as change in melting temperature by differential scanning fluorimetry assay

[6] = biological target: Ephrin type-A receptor 4 (Homo sapiens, UniProt P54764); assay: Induction of stabilization of recombinant EPHA4 (unknown origin) assessed as change in melting temperature by differential scanning fluorimetry assay
Chain of Ephrin type-A receptor 4 (P54764 whole entry): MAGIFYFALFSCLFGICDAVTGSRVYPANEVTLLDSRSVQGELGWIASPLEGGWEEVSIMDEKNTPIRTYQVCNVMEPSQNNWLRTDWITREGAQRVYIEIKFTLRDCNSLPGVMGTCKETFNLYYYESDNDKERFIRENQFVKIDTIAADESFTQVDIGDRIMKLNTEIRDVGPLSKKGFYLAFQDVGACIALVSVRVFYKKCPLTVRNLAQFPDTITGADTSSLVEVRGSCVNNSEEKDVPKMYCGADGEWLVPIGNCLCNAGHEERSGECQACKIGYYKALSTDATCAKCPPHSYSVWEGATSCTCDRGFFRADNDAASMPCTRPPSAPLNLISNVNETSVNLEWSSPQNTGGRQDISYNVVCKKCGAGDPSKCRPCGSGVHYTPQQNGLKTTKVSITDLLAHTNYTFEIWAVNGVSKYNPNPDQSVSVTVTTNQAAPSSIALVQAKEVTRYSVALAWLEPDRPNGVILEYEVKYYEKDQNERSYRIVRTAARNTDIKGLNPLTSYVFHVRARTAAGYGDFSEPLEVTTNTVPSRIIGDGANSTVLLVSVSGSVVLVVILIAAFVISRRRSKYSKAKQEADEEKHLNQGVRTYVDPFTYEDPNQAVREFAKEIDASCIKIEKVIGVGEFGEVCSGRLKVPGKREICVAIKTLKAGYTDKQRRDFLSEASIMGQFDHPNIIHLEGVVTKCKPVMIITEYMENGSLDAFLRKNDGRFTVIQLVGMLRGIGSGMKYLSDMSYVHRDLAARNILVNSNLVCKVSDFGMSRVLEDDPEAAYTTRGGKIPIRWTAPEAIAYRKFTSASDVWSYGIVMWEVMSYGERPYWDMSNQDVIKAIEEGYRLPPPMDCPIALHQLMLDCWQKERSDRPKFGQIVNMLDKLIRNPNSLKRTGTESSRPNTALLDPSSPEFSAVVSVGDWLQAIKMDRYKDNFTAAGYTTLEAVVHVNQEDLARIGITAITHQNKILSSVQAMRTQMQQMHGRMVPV

[7] = biological target: Ephrin type-A receptor 5 (Homo sapiens) (UniProt P54756)
Description: Induction of stabilization of recombinant EPHA5 (unknown origin) assessed as change in melting temperature by differential scanning fluorimetry assay

[8] = biological target: T2, Cyclin-G-associated kinase (Homo sapiens) (UniProt O14976)
T2 sequence (whole entry): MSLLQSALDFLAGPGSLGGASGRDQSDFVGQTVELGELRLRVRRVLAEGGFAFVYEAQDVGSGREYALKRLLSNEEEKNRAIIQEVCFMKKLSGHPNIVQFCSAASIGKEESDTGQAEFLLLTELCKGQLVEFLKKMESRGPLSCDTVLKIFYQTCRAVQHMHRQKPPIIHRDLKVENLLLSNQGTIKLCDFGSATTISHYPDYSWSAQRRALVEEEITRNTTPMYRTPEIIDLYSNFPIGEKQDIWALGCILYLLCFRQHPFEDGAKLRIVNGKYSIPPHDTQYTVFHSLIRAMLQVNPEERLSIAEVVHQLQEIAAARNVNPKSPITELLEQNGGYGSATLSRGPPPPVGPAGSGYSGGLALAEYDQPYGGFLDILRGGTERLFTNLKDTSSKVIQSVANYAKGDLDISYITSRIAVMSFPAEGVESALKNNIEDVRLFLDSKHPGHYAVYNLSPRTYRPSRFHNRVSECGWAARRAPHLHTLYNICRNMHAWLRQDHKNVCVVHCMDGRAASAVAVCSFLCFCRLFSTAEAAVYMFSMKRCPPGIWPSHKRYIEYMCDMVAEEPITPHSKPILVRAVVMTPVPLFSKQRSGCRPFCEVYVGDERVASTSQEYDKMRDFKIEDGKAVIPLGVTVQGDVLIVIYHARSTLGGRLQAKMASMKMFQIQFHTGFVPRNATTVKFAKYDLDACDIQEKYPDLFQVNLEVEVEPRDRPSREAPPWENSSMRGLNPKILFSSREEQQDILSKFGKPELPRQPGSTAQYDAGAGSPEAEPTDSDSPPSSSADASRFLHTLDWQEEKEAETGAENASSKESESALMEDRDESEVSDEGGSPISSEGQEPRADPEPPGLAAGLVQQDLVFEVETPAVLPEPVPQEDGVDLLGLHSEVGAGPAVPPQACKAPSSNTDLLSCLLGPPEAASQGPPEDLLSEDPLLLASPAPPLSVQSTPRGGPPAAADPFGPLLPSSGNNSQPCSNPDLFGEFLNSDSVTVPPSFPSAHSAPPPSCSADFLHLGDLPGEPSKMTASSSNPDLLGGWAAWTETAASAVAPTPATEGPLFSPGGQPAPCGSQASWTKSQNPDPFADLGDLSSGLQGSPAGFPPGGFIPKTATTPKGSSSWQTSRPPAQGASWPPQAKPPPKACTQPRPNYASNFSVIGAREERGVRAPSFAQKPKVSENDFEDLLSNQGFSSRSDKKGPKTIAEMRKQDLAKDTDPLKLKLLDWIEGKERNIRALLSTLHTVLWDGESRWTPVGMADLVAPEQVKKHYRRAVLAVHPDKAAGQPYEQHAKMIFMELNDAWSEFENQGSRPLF
Description: Induction of stabilization of recombinant GAK (unknown origin) assessed as change in melting temperature by differential scanning fluorimetry assay

[9] = biological target: Ephrin type-A receptor 7 (Homo sapiens) (UniProt Q15375); assay: Induction of stabilization of recombinant EPHA7 (unknown origin) assessed as change in melting temperature by differential scanning fluorimetry assay
Chain of Ephrin type-A receptor 7 (Homo sapiens) (Q15375 28-998 limits assumed): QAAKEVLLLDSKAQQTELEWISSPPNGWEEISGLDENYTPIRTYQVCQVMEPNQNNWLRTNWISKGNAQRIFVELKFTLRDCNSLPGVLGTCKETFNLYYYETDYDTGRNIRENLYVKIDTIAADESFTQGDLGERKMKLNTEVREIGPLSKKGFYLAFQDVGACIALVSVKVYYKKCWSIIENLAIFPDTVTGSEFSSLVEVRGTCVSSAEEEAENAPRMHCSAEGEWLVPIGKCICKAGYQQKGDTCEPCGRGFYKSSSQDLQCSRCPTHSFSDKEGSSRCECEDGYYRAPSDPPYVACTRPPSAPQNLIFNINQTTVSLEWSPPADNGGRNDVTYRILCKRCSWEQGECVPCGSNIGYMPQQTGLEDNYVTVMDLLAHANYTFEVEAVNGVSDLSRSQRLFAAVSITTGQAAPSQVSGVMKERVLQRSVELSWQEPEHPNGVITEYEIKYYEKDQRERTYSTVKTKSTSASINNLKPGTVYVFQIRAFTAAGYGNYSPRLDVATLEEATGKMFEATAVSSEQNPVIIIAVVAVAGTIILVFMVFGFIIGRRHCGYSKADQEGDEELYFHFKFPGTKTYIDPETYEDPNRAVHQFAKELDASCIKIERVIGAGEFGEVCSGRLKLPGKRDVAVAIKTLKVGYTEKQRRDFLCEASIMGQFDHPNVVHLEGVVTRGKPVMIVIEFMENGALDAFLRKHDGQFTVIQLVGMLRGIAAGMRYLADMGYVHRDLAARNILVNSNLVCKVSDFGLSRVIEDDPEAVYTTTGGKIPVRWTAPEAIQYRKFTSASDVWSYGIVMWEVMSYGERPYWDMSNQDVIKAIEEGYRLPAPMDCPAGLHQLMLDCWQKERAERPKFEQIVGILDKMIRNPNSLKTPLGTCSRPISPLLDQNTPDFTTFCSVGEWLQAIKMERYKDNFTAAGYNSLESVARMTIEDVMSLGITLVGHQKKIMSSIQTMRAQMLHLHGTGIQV

[10] = biological target: T3, Ephrin type-B receptor 3 (Homo sapiens) (UniProt P54753); assay: Induction of stabilization of recombinant EPHB3 (unknown origin) assessed as change in melting temperature by differential scanning fluorimetry assay
T3 sequence (whole entry): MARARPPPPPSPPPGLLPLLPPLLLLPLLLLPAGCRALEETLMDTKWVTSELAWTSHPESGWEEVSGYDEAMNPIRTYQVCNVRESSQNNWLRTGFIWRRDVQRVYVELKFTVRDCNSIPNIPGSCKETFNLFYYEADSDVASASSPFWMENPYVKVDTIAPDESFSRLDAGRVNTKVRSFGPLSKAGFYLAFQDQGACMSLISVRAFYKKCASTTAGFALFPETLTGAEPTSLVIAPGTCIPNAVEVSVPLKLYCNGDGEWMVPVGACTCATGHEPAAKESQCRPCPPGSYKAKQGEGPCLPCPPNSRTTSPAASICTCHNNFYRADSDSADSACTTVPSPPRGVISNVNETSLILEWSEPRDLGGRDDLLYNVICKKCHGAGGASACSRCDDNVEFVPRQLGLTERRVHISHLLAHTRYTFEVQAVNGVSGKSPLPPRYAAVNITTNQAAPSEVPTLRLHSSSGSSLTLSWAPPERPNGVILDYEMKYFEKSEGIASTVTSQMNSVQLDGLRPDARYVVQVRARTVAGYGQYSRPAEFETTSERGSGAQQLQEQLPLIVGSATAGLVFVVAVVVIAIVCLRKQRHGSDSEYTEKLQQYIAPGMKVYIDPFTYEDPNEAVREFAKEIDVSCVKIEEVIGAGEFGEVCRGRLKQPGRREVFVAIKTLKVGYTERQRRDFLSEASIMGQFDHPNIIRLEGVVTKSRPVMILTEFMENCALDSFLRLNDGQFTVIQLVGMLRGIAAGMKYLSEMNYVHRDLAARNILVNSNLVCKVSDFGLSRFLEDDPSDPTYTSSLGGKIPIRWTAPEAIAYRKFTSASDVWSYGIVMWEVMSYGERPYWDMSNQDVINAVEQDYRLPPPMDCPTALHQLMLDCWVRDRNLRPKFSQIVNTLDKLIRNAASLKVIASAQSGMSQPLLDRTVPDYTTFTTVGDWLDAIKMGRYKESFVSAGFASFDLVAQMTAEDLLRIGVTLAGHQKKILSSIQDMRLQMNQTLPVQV

| SMILES | deltaTm [1] [K] | deltaTm [2] [K] | deltaTm [3] [K] | deltaTm [4] [K] | deltaTm [5] [K] | deltaTm [6] [K] | deltaTm [7] [K] | deltaTm [8] [K] | deltaTm [9] [K] | deltaTm [10] [K] |
| --- | --- | --- | --- | --- | --- | --- | --- | --- | --- | --- |
| Nc1cc(-c2cnc3nc2NCCCNS(=O)(=O)c2cccc(c2)N3)ccc1F | 4.9 | 3.6 | 7.7 | 4.6 | 2.2 | 4.4 | 4.6 | 6 | 0.2 | 1.7 |
| O=S1(=O)NCCCNc2nc(ncc2-c2cc(Cl)c(F)cc2F)Nc2cccc1c2 | 4.3 | 3.3 | 7.5 | 4.7 | 3.1 | 3.2 | 5.7 | 5.8 | 0.1 | 4.3 |
| COc1cc(-c2cnc3nc2NCCCNS(=O)(=O)c2cccc(c2)N3)cc(C(F)(F)F)c1 | 5.3 | 0.9 | 1.8 | 5.8 | 4.9 | 0.8 | 1.3 | 3.3 | 1.4 | 1.1 |
| CSc1cc(-c2cnc3nc2NCCCNS(=O)(=O)c2cccc(c2)N3)ccc1F | 4.7 | 3 | 6.9 | 4.1 | 3.3 | 3.4 | 4.3 | 7.8 | 2 | 4.3 |
| O=S1(=O)NCCCNc2nc(ncc2-c2cc(Cl)c(Cl)cc2F)Nc2cccc1c2 | 5.4 | 3.5 | 9.5 | 5.7 | 4.5 | 3.8 | 5.6 | 6.5 | 0.4 | 5.4 |
| COc1cc(-c2cnc3nc2NCCCNS(=O)(=O)c2cccc(c2)N3)ccc1C#N | 1.1 | 5.2 | 8.6 | 1.7 | 0 | 5.2 | 6.2 | 8.9 | 0 | 3.1 |
| COc1cc(-c2cnc3nc2NCCCNS(=O)(=O)c2cc(ccc2OCCN2CCOCC2)N3)ccc1F | 3 | 4.2 | 6.9 | 3.2 | 2.1 | 3.7 | 4.6 | 9 | 1 | 4.8 |
| COc1cc(-c2cnc3nc2NCCCNS(=O)(=O)c2cccc(c2)N3)ccc1Cl | 5.2 | 0.9 | 7.7 | 3.8 | 3.3 | 4.1 | 4.9 | 7.1 | 2.1 | 4.7 |
| CC(C)Oc1cc(-c2cnc3nc2NCCCNS(=O)(=O)c2cccc(c2)N3)ccc1F | 2.1 | 0 | 0.7 | 1.5 | 1 | 0.7 | 0.2 | 1.6 | 0.6 | 3.4 |
| COc1cc(-c2cnc3nc2NCCCNS(=O)(=O)c2cc(ccc2OCC(N)=O)N3)ccc1F | 0.8 | 1.5 | 3.5 | 1.5 | 0.7 | 2.3 | 3.9 | 6.3 | 0.7 | 2.5 |
| O=S1(=O)NCCCNc2nc(ncc2Br)Nc2cccc1c2 | – | – | 6.7 | – | – | – | – | 4.9 | – | – |
| COc1cc(-c2cnc3nc2NCCCNS(=O)(=O)c2cccc(c2)N3)cc(F)c1F | 3 | 2.7 | 5 | 2.9 | 2.2 | 1.2 | 1.9 | 4.1 | -3.3 | 2.3 |
| CN[C@@H]1C[C@H]2O[C@@](C)([C@@H]1OC)n1c3ccccc3c3c4c(c5c6ccccc6n2c5c31)C(=O)NC4 | 10.2 | 6.4 | 6.4 | – | – | 6.2 | – | – | – | 6.1 |

— ChEMBL document CHEMBL5550200, “Back-Pocket Optimization of 2-Aminopyrimidine-Based Macrocycles Leads to Potent EPHA2/GAK Kinase Inhibitors” (J Med Chem, 2024)
